These are literature values, as cited in patent US12144813B2, “PLK1 inhibitor in combination with anti-angiogenics for treating metastatic cancer” (CARDIFF ONCOLOGY, INC., priority 2022, dated 2024).

Like-named read-outs stand apart in the source and are kept apart here.

The target of one series is PLK1 (Homo sapiens, UniProt P53350). Conditions: panel of 296 kinases, including other PLK members.
Series [1] concerns cell lines, both from solid as well as hematologic tumors. The note with it: large number of cell lines, solid and hematologic tumors.
A further series deals with xenograft tumor. The note with it: well tolerated doses in mice after oral administration.
In series [2] the test system is disseminated model of AML.
Series [3] deals with HT29 human colon adenocarcinoma xenografts. Conditions: combination with irinotecan.
Series [4] relates to patients with advanced/metastatic solid tumors.
The test system of series [5] is patients with AML who were treatment naïve yet unsuitable for induction therapy. Conditions: administered intravenously in combination with LDAC; phase II.
For another series, the system named is AML. The note with it: combination with LDAC; phase III.
The test system of series [6] is 2nd line patients, bev naïve or prior bev in 1st line. Conditions: prior trials.

PLK1, sequence (P53350 whole entry): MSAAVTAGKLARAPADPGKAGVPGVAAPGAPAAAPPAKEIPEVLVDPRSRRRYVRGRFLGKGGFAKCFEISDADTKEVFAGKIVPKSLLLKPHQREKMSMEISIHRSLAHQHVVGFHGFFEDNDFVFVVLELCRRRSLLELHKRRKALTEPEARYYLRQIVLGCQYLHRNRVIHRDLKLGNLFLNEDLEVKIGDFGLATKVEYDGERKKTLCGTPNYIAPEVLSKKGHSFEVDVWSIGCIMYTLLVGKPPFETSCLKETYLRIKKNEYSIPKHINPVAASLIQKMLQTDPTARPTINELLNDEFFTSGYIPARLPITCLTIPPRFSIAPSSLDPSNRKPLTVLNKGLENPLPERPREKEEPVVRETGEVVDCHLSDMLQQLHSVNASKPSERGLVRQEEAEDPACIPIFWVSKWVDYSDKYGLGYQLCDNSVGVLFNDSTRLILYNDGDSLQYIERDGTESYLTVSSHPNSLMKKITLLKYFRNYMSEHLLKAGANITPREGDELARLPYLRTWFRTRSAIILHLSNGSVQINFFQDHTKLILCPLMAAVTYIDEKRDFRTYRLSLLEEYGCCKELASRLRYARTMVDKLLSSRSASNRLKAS

On to `CN1CCN(c2ccc(OC(F)(F)F)c(Nc3ncc4c(n3)-c3c(c(C(N)=O)nn3CCO)CC4)c2)CC1` [Onvansertib, 1-(2-hydroxyethyl)-8-{[5-(4-methylpiperazin-1-yl)-2-(trifluoromethoxy)phenyl]amino}-4,5-dihydro-1H-pyrazolo[4,3-h]quinazoline-3-carboxamide], for which the “Specificity for PLK1” value on PLK1 was “high specificity”. The “Potency in proliferation assays” value in series [1] is “low nanomolar activity”. Further, the Xenograft tumor growth result in the series on xenograft tumor was “inhibits xenograft tumor growth”. Further, the Survival of animals entry in series [2] (disseminated model of AML, combination therapy with cytarabine) is “prolonged survival”. Further, the “Effect on cytarabine antitumor activity” value in series [2] (disseminated models of AML, with cytarabine) was “significantly increased”. Also, the “Tumor regression compared to each agent alone” value in [3] is on record as “enhanced tumor regression”. The “Inhibition of cell proliferation” value in the series on AML cell lines is “nanomolar concentrations”. Moreover, the Cell-cycle effect entry in the series with cancer cell lines is listed as “mitotic cell-cycle arrest followed by apoptosis”. Besides, the Primary dose-limiting toxicities result in series [4] (phase I, patients with advanced/metastatic solid tumors) is “neutropenia and thrombocytopenia”. In addition, the “Recovery from hematologic toxicities” value in series [4] (reversible toxicities) is at most 3 weeks.
`CC[C@@H]1C(=O)N(C)c2cnc(Nc3ccc(C(=O)N[C@H]4CC[C@H](N5CCN(CC6CC6)CC5)CC4)cc3OC)nc2N1C(C)C` [volasertib (BI6727)]: the “OS compared with LDAC alone” value in series [5] is reported as “significant increase in OS”. In the series with AML, the “Benefit of the combination” value is given as “no benefit” and the “Risk of severe infections” value is listed as “increased risk of severe infections”.
In the case of “Bevacizumab: anti-angiogenics / angiogenesis inhibitor, also referred to herein as bev”, in [6] (bev naïve patients), the mOS is given as 13.9 months and the mPFS is 6.9 months. For the same compound, in series [6] (patients with prior bev), the mOS is given as 12.5 months and the mPFS was 6.7 months.
